Assay results taken from publication PMC6199744, “Development of Chemical Proteomics for the Folateome and Analysis of the Kinetoplastid Folateome” (ACS Infectious Diseases, 2018).
Several values for one entry are separate records, joined by “and”; a condition that tells them apart may be missing. Equal values may be shown once. Read-outs that look alike come from different tables or passages of the source.

System: T. brucei lysate proteins
Format: binding, Trypanosoma brucei

## NCCCNc1ccc(C(=O)NC(CCC(=O)O)C(=O)O)cc1 (stereo not shown) [compound 7]
  fold change vs vehicle control: 0.96 and 1.1 and 0.99
Protein CZB00000046.1 HA-UBIQUITIN, vehicle control = 1
  fold change: 0.74
Protein RHS6A, vehicle control = 1
  fold change: 0.95
Protein TB09.160.3270 ATP-DEPENDENT DEAD BOX HELICASE, PUTATIVE, vehicle control = 1
  fold change vs vehicle control: 0.89
Protein TB09.160.3710 PRO[…] NUCLEAR ANTIGEN (PCNA), PUTATIVE, vehicle control = 1
  fold change: 0.81
Protein TB09.160.4200 60S ACIDIC RIBOSOMAL PROTEIN, PUTATIVE, vehicle control = 1
  fold change vs vehicle control: 0.64
Protein TB09.160.4250 TR[…], vehicle control = 1
  fold change vs vehicle control: 0.94
Protein TB09.211.2630 60S RIBOSOMAL PROTEIN L23, PUTATIVE, vehicle control = 1
  fold change vs vehicle control: 0.98
Protein TB09.211.4460 ADP-RI[…], PUTATIVE, vehicle control = 1
  fold change: 0.93
Protein TB09.211.4513 KIN[…] PROTEIN KMP-11, vehicle control = 1
  fold change: 0.88
Protein TB09.211.4760 METACASPASE 5, PUTATIVE, vehicle control = 1
  fold change: 1.1
Protein TB09.244.2780 HY[…], CONSERVED, vehicle control = 1
  fold change vs vehicle control: 1.54
Protein TB11.01.0450 PROTEIN PHOSPHATASE 1, PUTATIVE, vehicle control = 1
  fold change: 1
Protein TB11.01.2560 40S RIBOSOMAL PROTEIN SA, PUTATIVE, vehicle control = 1
  fold change vs vehicle control: 0.82
Protein TB11.01.3180 GUANINE NUCLEOTIDE-BINDING PROTEIN BETA SUBUNIT-LIKE PROTEIN, vehicle control = 1
  fold change vs vehicle control: 0.93
Protein TB11.01.4370 HY[…], CONSERVED, vehicle control = 1
  fold change vs vehicle control: 0.8
Protein TB11.01.5350 PROFILIN, vehicle control = 1
  fold change: 0.98
Protein TB11.01.5860 T-COMPLEX PROTEIN 1, EPSILON SUBUNIT, PUTATIVE, vehicle control = 1
  fold change: 0.91
Protein TB11.01.8590 RAB-LIKE 5, SMALL G PROTEIN, vehicle control = 1
  fold change: 0.85
Protein TB11.01.8740 PROTEIN PHOSPHATASE 4, PUTATIVE, vehicle control = 1
  fold change: 0.77
Protein TB11.02.2040 HY[…], CONSERVED (ALBA-Domain Protein), vehicle control = 1
  fold change vs vehicle control: 0.84
Protein TB11.02.2420 HY[…], CONSERVED, vehicle control = 1
  fold change vs vehicle control: 0.99
Protein TB11.02.2640 DYNEIN IN[…] IC78, PUTATIVE, vehicle control = 1
  fold change vs vehicle control: 1.17
Protein TB11.02.2960 MIT[…] PROTEIN, PUTATIVE, vehicle control = 1
  fold change: 0.88
Protein TB11.02.4170 40S RIBOSOMAL PROTEIN S5, PUTATIVE, vehicle control = 1
  fold change vs vehicle control: 1.18
Protein TB11.02.4700 14-3-3 PROTEIN, vehicle control = 1
  fold change: 1
Protein TB11.03.0250 C[…], vehicle control = 1
  fold change vs vehicle control: 0.88
Protein TB11.03.0530 HY[…], CONSERVED (hy[…] SCD6.10), vehicle control = 1
  fold change vs vehicle control: 1.76
Protein TB427TMP.01.0480 HY[…], CONSERVED, vehicle control = 1
  fold change vs vehicle control: 1
Protein TB427TMP.01.1470 60S RIBOSOMAL PROTEIN L10A, PUTATIVE, vehicle control = 1
  fold change: 0.84
Protein TB427TMP.01.4280 HY[…], CONSERVED, vehicle control = 1
  fold change vs vehicle control: 1.2
Protein TB427TMP.01.5680 HY[…], CONSERVED, vehicle control = 1
  fold change vs vehicle control: 0.98
Protein TB427TMP.01.5690 DRBD4, vehicle control = 1
  fold change vs vehicle control: 0.89
Protein TB427TMP.01.5960 MIT[…] PROTEIN, PUTATIVE, vehicle control = 1
  fold change: 0.93
Protein TB427TMP.01.6890 SMALL GTPASE, PUTATIVE, vehicle control = 1
  fold change vs vehicle control: 1.8
Protein TB427TMP.01.7490 HY[…], CONSERVED, vehicle control = 1
  fold change: 0.96
Protein TB427TMP.01.7530 HY[…], CONSERVED, vehicle control = 1
  fold change vs vehicle control: 1
Protein TB427TMP.01.8390 HY[…], CONSERVED, vehicle control = 1
  fold change: 0.96
Protein TB427TMP.01.8570 DYNEIN LIGHT IN[…] D1BLIC, PUTATIVE, vehicle control = 1
  fold change: 0.95
Protein TB427TMP.02.0030 DYNEIN HEAVY CHAIN, PUTATIVE, vehicle control = 1
  fold change: 0.88
Protein TB427TMP.02.0460 NUCLEOPORIN, vehicle control = 1
  fold change: 0.98
Protein TB427TMP.02.0750 T-COMPLEX PROTEIN 1, ZETA SUBUNIT, PUTATIVE, vehicle control = 1
  fold change: 1
Protein TB427TMP.02.0760 DYNEIN HEAVY CHAIN, PUTATIVE, vehicle control = 1
  fold change: 0.91
Protein TB427TMP.02.1070 AMINOPEPTIDASE, PUTATIVE, vehicle control = 1
  fold change: 0.72
Protein TB427TMP.02.1085 40S RIBOSOMAL PROTEIN S4, PUTATIVE, vehicle control = 1
  fold change vs vehicle control: 0.78
Protein TB427TMP.02.1106 NUCLEOBASE/NUCLEOSIDE TRANSPORTER 8 1, vehicle control = 1
  fold change: 0.95
Protein TB427TMP.02.2070 LONG-CHAIN-FATTY-ACID-COA LIGASE, PUTATIVE, vehicle control = 1
  fold change vs vehicle control: 0.95
Protein TB427TMP.02.2890 HY[…], CONSERVED, vehicle control = 1
  fold change vs vehicle control: 1.22
Protein TB427TMP.02.4300 HY[…], CONSERVED, vehicle control = 1
  fold change vs vehicle control: 1.4
Protein TB427TMP.02.4550 HY[…], CONSERVED, vehicle control = 1
  fold change: 0.93
Protein TB427TMP.02.5450 GLUCOSE-REGULATED PROTEIN 78, PUTATIVE, vehicle control = 1
  fold change vs vehicle control: 0.97
Protein TB427TMP.02.5660 HY[…], CONSERVED, vehicle control = 1
  fold change: 0.82
Protein TB427TMP.03.0150 HY[…], CONSERVED, vehicle control = 1
  fold change: 0.91
Protein TB427TMP.160.2370 HY[…], CONSERVED, vehicle control = 1
  fold change: 0.91
Protein TB427TMP.160.4620 INOSITOL-1(OR 4)-MONOPHOSPHATASE, PUTATIVE, vehicle control = 1
  fold change vs vehicle control: 0.99
Protein TB427TMP.160.4630 HY[…], CONSERVED, vehicle control = 1
  fold change vs vehicle control: 0.83
Protein TB427TMP.160.4770 PROTEIN KINASE, PUTATIVE, vehicle control = 1
  fold change: 0.89
Protein TB427TMP.160.5670 HY[…], CONSERVED, vehicle control = 1
  fold change: 1.47
Protein TB427TMP.211.0740 P21 ANTIGEN PROTEIN, PUTATIVE, vehicle control = 1
  fold change: 0.79
Protein TB427TMP.211.0930 POLYADENYLATE-BINDING PROTEIN 1 (POLY(A)-BINDING PROTEIN 1) (PABP 1), vehicle control = 1
  fold change: 0.89
Protein TB427TMP.211.2460 HY[…], CONSERVED, vehicle control = 1
  fold change: 0.96
Protein TB427TMP.211.2570 T-COMPLEX PROTEIN 1, ETA SUBUNIT, PUTATIVE, vehicle control = 1
  fold change vs vehicle control: 0.8
Protein TB427TMP.211.3140 HY[…], CONSERVED, vehicle control = 1
  fold change vs vehicle control: 2.05
Protein TB427TMP.211.3510 ATP-DEPENDENT DEAD/H RNA HELICASE, PUTATIVE, vehicle control = 1
  fold change vs vehicle control: 0.97
Protein TB427TMP.211.4170 HY[…], CONSERVED, vehicle control = 1
  fold change vs vehicle control: 1.18
Protein TB427TMP.22.0003 PHOSPH[…], PUTATIVE, vehicle control = 1
  fold change vs vehicle control: 1.32
Protein TB427TMP.244.2840 HY[…], CONSERVED, vehicle control = 1
  fold change: 0.93
Protein TB427TMP.47.0011 HY[…], CONSERVED, vehicle control = 1
  fold change: 0.87
Protein TB427TMP.55.0006 INTR[…] PROTEIN IFT88, vehicle control = 1
  fold change vs vehicle control: 0.91
Protein TB427.01.120 RETRO[…] SPOT (RHS) PROTEIN, PUTATIVE, vehicle control = 1
  fold change vs vehicle control: 0.9
Protein TB427.01.2570 COATOMER BETA SUBUNIT, vehicle control = 1
  fold change: 0.94
Protein TB427.01.5030 LEUCINE-RICH REPEAT PROTEIN (LRRP), PUTATIVE, vehicle control = 1
  fold change: 0.98
Protein TB427.02.2970 MIT[…] PROTEIN, PUTATIVE, vehicle control = 1
  fold change vs vehicle control: 1.23
Protein TB427.02.3880 HET[…] RIBONUC[…]/F, PUTATIVE, vehicle control = 1
  fold change vs vehicle control: 1.22
Protein TB427.03.1210 PROTEIN TRANSPORT PROTEIN SEC24, vehicle control = 1
  fold change vs vehicle control: 1.18
Protein TB427.03.3160 POLY(A) POLYMERASE, vehicle control = 1
  fold change vs vehicle control: 1.17
Protein TB427.03.3950 HY[…], CONSERVED, vehicle control = 1
  fold change vs vehicle control: 0.95
Protein TB427.03.4040 HY[…], CONSERVED (Ankyrinrepeat), vehicle control = 1
  fold change vs vehicle control: 1.73
Protein TB427.04.1080 V-TYPE ATPASE, A SUBUNIT, PUTATIVE, vehicle control = 1
  fold change vs vehicle control: 1.34
Protein TB427.04.1090 ENDOSOMAL INTEGRAL MEMBRANE PROTEIN, PUTATIVE, vehicle control = 1
  fold change: 1.3
Protein TB427.04.1300 HY[…], CONSERVED, vehicle control = 1
  fold change: 0.92
Protein TB427.04.1660 MIT[…] PROTEIN, PUTATIVE, vehicle control = 1
  fold change vs vehicle control: 0.89
Protein TB427.04.310 HY[…], CONSERVED, vehicle control = 1
  fold change: 0.56
Protein TB427.04.3890 ATP-DEPENDENT RNA HELICASE, PUTATIVE, vehicle control = 1
  fold change: 0.88
Protein TB427.04.420 PHOSPHATIDYLINOSITOL 3-KINASE (TOR2), vehicle control = 1
  fold change: 0.71
Protein TB427.04.450 COATOMER ALPHA SUBUNIT, PUTATIVE, vehicle control = 1
  fold change: 0.89
Protein TB427.04.5010 CALRETICULIN, PUTATIVE, vehicle control = 1
  fold change: 0.83
Protein TB427.04.5200 NUCLEOPORIN (NUP54/57), PUTATIVE, vehicle control = 1
  fold change: 0.99
